Test results as given in US10480032B2, “Use of EI24 gene” (UNIVERSITY-INDUSTRY FOUNDATION, YONSEI UNIVERSITY, priority 2016, dated 2019).

System: PC9-GR cells expressing exogenous EI24 (9GR-O/E)
Assay: MTT assay in gefitinib-resistant PC9-GR cells over-expressing EI24
Assay type: cell-based, human
Details: 20 μM gefitinib, ectopic expression of EI24 in PC9-GR, FIG. 3
Protocol: A PC9 EGFR-mutant NSCLC cell line and its gefitinib-resistant derivative (PC9-GR) are described in a document by S. M. Kim et al. (Mol. Cancer Ther. vol. 11, pp. 2254-2264(2012)). All cells were cultured in an RPMI 1640 medium supplemented with 10% […]. A human EI24-overexpressing cell line and a control cell line were established by transfection with a plasmid including FLAG-tagged EI24 and the corresponding empty vector (pcDNA3.1), respectively. Human EI24-knockdown cell lines were established using a method described in a document by J. M. Choi et al. (Oncotarget, vol. 4, pp. 2383-2396(2013)). The shRNA sequences are as follows:
Cells were seeded at a density of 3×10^4 cells/well in a 96-well culture plate and incubated for 24 hours. The cells were exposed to drugs for 48 hours, and 0.4 mg/ml MTT was added until reaching a mid-height of each well. After incubating at 37° C. for 4 hours, formazan crystals in viable cells were solubilized with 100 μl of dimethyl sulfoxide (DMSO). The optical density of the formazan product was read at 590 nm on a microreader (Bio-Rad). All experiments were repeated three times.
In addition, the EI24 gene was over-expressed in a gefitinib-resistant cell line (PC9-GR) among PC9 cell lines and gefitinib was added thereto, and EI24 expression and apoptosis were measured through immunoblotting analysis and MTT assay, respectively. […]

In the case of `COc1cc2ncnc(Nc3ccc(F)c(Cl)c3)c2cc1OCCCN1CCOCC1` [gefitinib], the cell viability is reported as “up to 18%”.
